Converted amounts (≈) assume the structure as drawn. Read-outs that look alike come from different tables or passages of the source.
Key:
Assay type in all cases: in vivo
[1] = test system: resistant strain of green rice leafhopper (Nephotetix cincticecs); test: Test Example 3: LC50 against adults of a resistant strain of green rice leafhopper (rice seedling dipping); details: Nephotettix cincticeps, 24 h, read-out: LC50 value
Method: The emulsifiable concentrates of the following present compounds and control compounds obtained according to Formulation example 2 were each diluted with water to a prescribed concentration, and rice seedlings (about 12 cm in length) were dipped for 1 minute in the resulting aqueous dilute solutions. After air-drying, the seedlings were placed in test tube, and 10 adults of a resistant strain of green rice leafhopper (Nephotetix cincticecs) were liberated in the tube. After one day, the dead and alive of the adults were examined to obtain LC50 (50% lethal concentration)(two replications).

[2] = test system: common mosquito (Culex pipiens pallens); test: Test Example 1: mortality of larvae and inhibition of emergence of common mosquito; details: for Inhibitory ratio of emergence: 3.5 ppm, counted when all mosquitoes of no treatment group had emerged; for mortality at 3.5 ppm: Culex pipiens, 24 h, last instar larvae, after one day
Method: The emulsifiable concentrates of the following present compounds obtained according to Formulation example 2 were each diluted with water so as to obtain respective aqueous solutions containing 3.5 ppm of said compounds, respectively. One hundred ml of thus diluted aqueous solutions were poured into respective polyethylene cups of 180 ml volume, and 20 of the last instar larvae of common mosquito (Culex pipiens pallens) were liberated thereto. After one day, the dead or alive of the larvae were examined. Thereafter, the feed was added to respective cups and the number of emerged mosquitoes of the respective cups was counted when all the mosquitoes of no treatment group had […] to calculate the inhibitory ratios of the emergence. The mortality and the inhibitory ratio of the emergence are shown according to the following three criteria: mortality: A; 90% or more, […] inhibitory: A; 90% or more, ratio of emergence B; less than 90% to 80% C; less than 80%.

[3] = test system: tobacco cutworms (Spodoptera litura); test: Test Example 2: mortality of tobacco cutworm 4th instar larvae on treated artificial feed; details: 144 h, 2 ml in 13 g artificial feed, six days after, two replications
Source text: Two ml of thus diluted solutions were impregnated into the artificial feeds (13 g) for tobacco cutworms (Spodoptera litura) and thus prepared feeds were placed in polyethylene cups of 11 cm in diameter, respectively. Ten of the 4th instar larvae were liberated thereon.
Six days after, the dead and alive of the larvae were examined to calculate the mortality (two replications).

[4] = test system: carmine spider mite (Tetranychus cinnabarinus); test: Test Example 8: degree of damage of kidney bean plant by carmine spider mite; design: key: -: No damage is observed.; +: Slight damage is observed.; ++: The same damage as in the untreated plot is observed; details: 500 ppm, sprayed 15 ml/pot plus 2 ml to soil; after 8 days; 25° C.
Method: The female adults of carmine spider mite (Tetranychus cinnabarinus) were put at a rate of 10 adults/leaf on the leaves of potted kidney bean (at the primordial leaf stage) which had elapsed 7 days after sowing, and placed in a constant-temperature room kept at 25° C. After 6 days, the 200-fold aqueous dilute solutions (corresponding to 500 ppm), prepared from the emulsifiable concentrates of the following present compounds and control compounds prepared according to Formulation example 2, were each sprayed at a rate of 15 ml/pot on a turn table. At the same time, the soil in the pot was treated with 2 ml of each aqueous solution. After 8 days, the degree of damage of the plant by the mite was examined.
-: No damage is observed.
+: Slight damage is observed.
++: The same damage as in the untreated plot is observed.

[5] = test system: brown rice planthoppers (Nilaparavata lugens); test: Test Example 7: mortality and residual effect on brown rice planthoppers on sprayed potted rice plants; details: Oryza sativa, 24 h
Method: The emulsifiable concentrates of the following compounds and control compounds obtained according to Formulation example 2 were each diluted with water one thousand times (corresponding to 100 ppm) and each of thus prepared solutions was sprayed at the rate of 20 ml/2 pots to the rice plant seedlings planted in Wagner pots having a surface area of one ten thousandth are. After air-drying, the threated plants were covered with the iron wire cages, and about 15 adults of brown rice planthoppers (Nilaparavata lugens) were liberated thereto. Further, about 15 adults thereof were also liberated thereto 4 days after the application to examine the residual effects. Twenty four hours after each liberation, the dead and alive adults were examined to calculate the mortality.

[6] = test system: young Japanese carp (Cyprinida carpio); test: Test Example 9: fish toxicity test; details: forty-eight hours, 25°±1° C., Probit method, 2880 min
Method: Twenty liters of each of the aqueous solutions containing the prescribed concentrations of the present compounds and comparative control one, and 10 young carp were liberated thereto. Forty-eight hours after, the dead and alive carp were examined to obtain LC50 value, (50% lethal concentration) according to Probit method. All the tests were carried out in thermostatic aquaria whose temperatures were kept at 25°±1° C.
young Japanese carp (Cyprinida carpio)
Average body length ±S.D.: 2.94±0.19 cm.
Average body weight ±S.D.: 0.65±0.13 g.

[7] = test system: brown rice planthopper (Nilaparvata lugens); test: Test Example 4: LC50 against adults of brown rice planthopper (rice seedling dipping); details: 24 h, rice seedlings dipped, 10 adults, after one day, two replications
Source text: After air-drying, the seedlings were placed in a test tube, and 10 adults of brown rice planthopper (Nilaparvata lugens) were liberated in the tube.

[8] = test system: houseflies (Musca domestica) of WHO strains; test: Test Example 6: LC50 against adult female houseflies of WHO strains (sucrose bait); details: filter paper with sucrose bait, adult females, after 48 hours, two replications
Source text: Thirty milligrams of sucrose were uniformly placed on the filter paper as bait. Thereafter, 10 adult female houseflies (Musca domestica) of WHO strains were liberated in the cup, which was then covered witha lid.

[9] = test system: rice stem borer (Chilo suppressalis); test: Test Example 5: LC50 against rice stem borer larvae (artificial feed); details: larvae 10 days old, two replications
Source text: Ten of the larvae of the 10 days old were liberated thereon.

[10] = rice seedlings dipped 1 minute, 10 adults, after one day, two replications
[11] = read-out: Mortality (%) liberated 4 days after application
[12] = read-out: Mortality (%) liberated just after air-drying

SMILES | LC50 [1, 10] [µg/mL] | LC50 [1] [µg/mL] | Inhibitory ratio of emergence [2] | mortality at 3.5 ppm [2] [%] | mortality at 150 ppm [3] [%] | Degree of damage [4] | mortality at 100 ppm [5, 11] [%] | mortality at 100 ppm [5, 12] [%] | LC50 value (fish toxicity) [6] [ppm] | LC50 [7] [µg/mL] | LC50 [8] [µg/mL] | LC50 [9] [µg/mL]
CCOC(=O)CC(SP(=S)(OC)OC)C(=O)OCC (stereo not shown) [(D), Malathion, reference compound] | ~500 (≈ 1510 µM) |  |  |  |  |  |  |  |  |  |  | 
C#CC(C)(CCCc1cccc(Oc2ccccc2)c1)c1ccc(C(F)(F)F)cc1 (stereo not shown) [(13), 3-(4-Trifluoromethylphenyl)-3-methyl-6-(3-phenoxyphenyl)-1-hexyne] |  | 10 (≈ 24.5 µM) | A (90% or more) | > 90 | 100 | - |  |  |  |  |  | 
C#CC(C)(CCCc1ccc(F)c(Oc2ccccc2)c1)c1ccc(C(F)(F)F)cc1 (stereo not shown) [(37), 3-(4-Trifluoromethylphenyl)-3-methyl-6-(3-phenoxy-4-fluorophenyl)-1-hexyne] | 14 (≈ 32.8 µM) |  | A (90% or more) | > 90 |  |  |  |  |  |  |  | 
C#CC(C)(CCCc1cccc(Oc2ccccc2)c1)c1ccc(OCC)cc1 (stereo not shown) [(3), 3-(4-ethoxyphenyl)-3-methyl-6-(3-phenoxyphenyl)-1-hexyne] |  |  | A (90% or more) | > 90 |  | - | 95 | 100 | > 10 |  |  | 
CCC(C)(CCCc1cccc(Oc2ccccc2)c1)c1ccc(Cl)cc1 (stereo not shown) [(A), reference compound] |  | ~500 (≈ 1320 µM) |  |  |  | + ~ ++ | 44 | 71 |  | > 500 | ~500 (≈ 1320 µM) | 230 (≈ 607 µM)
C#CC(C)(CCCc1ccc(F)c(Oc2ccccc2)c1)c1ccc(OCC)cc1 (stereo not shown) [(4), 3-(4-Ethoxyphenyl)-3-methyl-6-(3-phenoxy-4-fluorophenyl)-1-hexyne] |  |  | A (90% or more) | > 90 |  | - | 100 | 100 | > 10 |  |  | 
